The source of these data is patent US12478617B2, “Lipidated peptide inhibitors of interleukin-23 receptor” (JANSSEN BIOTECH, INC., priority 2021, dated 2025).

pIC50: −log10 of the molar value. Starred links: 1 amine or outer side, 2 acyl side, 3 side chain; linkers in the order of their positions; H or OH if unused. Positions of bridges follow the written chain, without caps; N, C: chain ends. Non-standard residues stand in square brackets, D forms with d. Residues, ends and D or L forms follow the SMILES beside them. Groups on a side chain read outwards from the residue. *: point of attachment. Trp(7-Me) = Cc1cccc2c(C[C@H](N)C(=O)O)c[nH]c12; C20 diacid = O=C(O)CCCCCCCCCCCCCCCCCCC(=O)*; C18 diacid = O=C(O)CCCCCCCCCCCCCCCCC(=O)*; C16 diacid = O=C(O)CCCCCCCCCCCCCCC(=O)*; γGlu = O=C(O)[C@H](CCC(=O)[*:2])N[*:1]; 2Nal = N[C@@H](Cc1ccc2ccccc2c1)C(=O)O; AEF = NCCOc1ccc(C[C@H](N)C(=O)O)cc1; Stearoyl = CCCCCCCCCCCCCCCCCC(=O)*; 3Pal = N[C@@H](Cc1cccnc1)C(=O)O; Pen = CC(C)(S)[C@H](N)C(=O)O; Thp = NC1(C(=O)O)CCOCC1; AEEA = NCCOCCOCC(=O)O; Sar = CNCC(=O)O

In the first assay the target is T1, IL-23R (Homo sapiens, UniProt Q5VWK5).
T1 construct: HEK293 cells containing IL-23R, IL-12RP31 and a firefly luciferase reporter gene driven by a STAT-inducible promoter (Promega); host or cells: HEK293
T1 sequence (Q5VWK5 24-629): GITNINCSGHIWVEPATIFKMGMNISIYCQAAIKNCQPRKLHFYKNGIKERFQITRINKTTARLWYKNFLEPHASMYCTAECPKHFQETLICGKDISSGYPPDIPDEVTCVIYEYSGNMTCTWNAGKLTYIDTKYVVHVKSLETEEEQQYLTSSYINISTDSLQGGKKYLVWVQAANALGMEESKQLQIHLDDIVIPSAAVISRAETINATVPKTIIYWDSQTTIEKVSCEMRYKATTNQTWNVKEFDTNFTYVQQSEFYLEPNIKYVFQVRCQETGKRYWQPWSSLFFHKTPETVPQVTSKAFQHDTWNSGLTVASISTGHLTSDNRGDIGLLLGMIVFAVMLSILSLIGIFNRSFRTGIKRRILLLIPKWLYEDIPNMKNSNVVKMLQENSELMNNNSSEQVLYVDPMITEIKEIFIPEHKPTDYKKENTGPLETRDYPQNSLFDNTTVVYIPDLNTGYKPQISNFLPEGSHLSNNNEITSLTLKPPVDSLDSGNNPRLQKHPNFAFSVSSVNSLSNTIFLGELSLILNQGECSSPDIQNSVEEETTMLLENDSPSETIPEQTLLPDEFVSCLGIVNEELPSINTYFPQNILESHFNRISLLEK
Description: IL23R Reporter Assay. Format: cell-based.
Details: not given
The source says: IL-23 binding to IL-23 receptors results in the activation of the Signal Transducer and Activator of Transcription 3 (STAT3) by phosphorylation and downstream signaling events. Accordingly. the ability of the inhibitors described herein to block IL-23 action can be assessed by monitoring the status of STAT3 activation in response to IL-23. This may be accomplished in reporter cell assays or in intact cells such as peripheral blood mononuclear cells (PBMCs).
Compounds were serially diluted in 100% (v/v) DMSO) and plated using an Echo acoustic dispenser (Labcyte) into 1536-well non-treated black assay plates (Corning #9146). […] After 5 h at 37° C., 5% CO2, 95% relative humidity, cells were placed at 20° C. and treated with BioGlo reagent (Promega) according to the Manufacturer's instructions. Luminescence was measured on a Pherastar FSX (BMG LabTech).
In the case of `CC(=O)NCCCC[C@@H]1NC(=O)[C@H](Cc2c[nH]c3c(C)cccc23)NC(=O)[C@H]([C@@H](C)O)NC(=O)[C@H](CC(N)=O)NC(=O)[C@@H](NC(=O)[C@@H](CCCNC(=N)N)NC(C)=O)C(C)(C)SSC(C)(C)[C@@H](C(=O)N[C@@H](Cc2ccc(OCCNC(=O)COCCOCCNC(=O)COCCOCCNC(=O)CC[C@H](NC(=O)CCCCCCCCCCCCCCC(=O)O)C(=O)O)cc2)C(=O)N[C@@H](Cc2ccc3ccccc3c2)C(=O)NC2(C(=O)N[C@@H](CCCCNC(C)=O)C(=O)N[C@@H](CC(N)=O)C(=O)N[C@@H](Cc3cccnc3)C(=O)N(C)CC(N)=O)CCOCC2)NC1=O` [Example 26, MeCO-r-Pen*-N-T-7MeW-K(Ac)-Pen*-AEF(PEG2PEG2gEC16OH)-2Nal-THP-K(Ac)-N-3Pya-Sar-CONH2] (Ac-[dR][Pen]NT[Trp(7-Me)]K(Ac)[Pen][AEF]([AEEA-AEEA-γGlu-C16 diacid])[2Nal][Thp]K(Ac)N[3Pal][Sar]-NH2; disulfide 2-7), the pIC50 is 10.60.

In turn, `CC(=O)NCCCC[C@@H]1NC(=O)[C@H](Cc2c[nH]c3c(C)cccc23)NC(=O)[C@H]([C@@H](C)O)NC(=O)[C@H](CC(N)=O)NC(=O)[C@@H](NC(C)=O)C(C)(C)SSC(C)(C)[C@@H](C(=O)N[C@@H](Cc2ccc(OCCN)cc2)C(=O)N[C@@H](Cc2ccc3ccccc3c2)C(=O)NC2(C(=O)N[C@@H](CCCCNC(=O)CC[C@H](NC(=O)CCCCCCCCCCCCCCCCCCC(=O)O)C(=O)O)C(=O)N[C@@H](CC(N)=O)C(=O)N[C@@H](Cc3cccnc3)C(=O)N(C)CC(N)=O)CCOCC2)NC1=O` [Example 89, MeCO-Pen*-N-T-7MeW-K(Ac)-Pen*-AEF-2Nal-THP-K(gEC20OH)-N-3Pya-Sar-CONH2] (Ac-[Pen]NT[Trp(7-Me)]K(Ac)[Pen][AEF][2Nal][Thp]K([γGlu-C20 diacid])N[3Pal][Sar]-NH2; disulfide 1-6) showed a pIC50 of 9.47.

`CC(=O)NCCCC[C@@H]1NC(=O)[C@H](Cc2c[nH]c3c(C)cccc23)NC(=O)[C@H]([C@@H](C)O)NC(=O)[C@H](CC(N)=O)NC(=O)[C@@H](NC(C)=O)C(C)(C)SSC(C)(C)[C@@H](C(=O)N[C@@H](Cc2ccc(OCCN)cc2)C(=O)N[C@@H](Cc2ccc3ccccc3c2)C(=O)NC2(C(=O)N[C@@H](CCCCNC(=O)COCCOCCNC(=O)COCCOCCNC(=O)CC[C@H](NC(=O)CCCCCCCCCCCCCCCCCCC(=O)O)C(=O)O)C(=O)N[C@@H](CC(N)=O)C(=O)N[C@@H](Cc3cccnc3)C(=O)N(C)CC(N)=O)CCOCC2)NC1=O` [Example 36, MeCO-Pen*-N-T-7MeW-K(Ac)-Pen*-AEF-2Nal-THP-K(PEG2PEG2gEC20OH)-N-3Pya-Sar-CONH2]: the pIC50 is 9.85.

With `CC(=O)NCCCC[C@@H]1NC(=O)[C@H](Cc2c[nH]c3c(C)cccc23)NC(=O)[C@H]([C@@H](C)O)NC(=O)[C@H](CC(N)=O)NC(=O)[C@@H](NC(C)=O)C(C)(C)SSC(C)(C)[C@@H](C(=O)N[C@@H](Cc2ccc(OCCN)cc2)C(=O)N[C@@H](Cc2ccc3ccccc3c2)C(=O)NC2(C(=O)N[C@@H](CCCCNC(=O)COCCOCCNC(=O)CC[C@H](NC(=O)CCCCCCCCCCCCCCCCC(=O)O)C(=O)O)C(=O)N[C@@H](CC(N)=O)C(=O)N[C@@H](Cc3cccnc3)C(=O)N(C)CC(N)=O)CCOCC2)NC1=O` [Example 35, MeCO-Pen*-N-T-7MeW-K(Ac)-Pen*-AEF-2Nal-THP-K(PEG2gEC18OH)-N-3Pya-Sar-CONH2] (Ac-[Pen]NT[Trp(7-Me)]K(Ac)[Pen][AEF][2Nal][Thp]K([AEEA-γGlu-C18 diacid])N[3Pal][Sar]-NH2; disulfide 1-6), the pIC50 is 9.72.

Regarding `CC(=O)NCCCC[C@@H]1NC(=O)[C@H](Cc2c[nH]c3c(C)cccc23)NC(=O)[C@H]([C@@H](C)O)NC(=O)[C@H](CC(N)=O)NC(=O)[C@@H](NC(C)=O)C(C)(C)SSC(C)(C)[C@@H](C(=O)N[C@@H](Cc2ccc(OCCN)cc2)C(=O)N[C@@H](Cc2ccc3ccccc3c2)C(=O)NC2(C(=O)N[C@@H](CCCCNC(=O)COCCOCCNC(=O)COCCOCCNC(=O)[C@@H]3CCCN3C(=O)CC[C@H](NC(=O)CCCCCCCCCCCCCCCCC(=O)O)C(=O)O)C(=O)N[C@@H](CC(N)=O)C(=O)N[C@@H](Cc3cccnc3)C(=O)N(C)CC(N)=O)CCOCC2)NC1=O` [Example 105, MeCO-Pen*-N-T-7MeW-K(Ac)-Pen*-AEF-2Nal-THP-K(PEG2PEG2PgEC18OH)-N-3Pya-Sar-CONH2] (Ac-[Pen]NT[Trp(7-Me)]K(Ac)[Pen][AEF][2Nal][Thp]K([AEEA-AEEA-Pro-γGlu-C18 diacid])N[3Pal][Sar]-NH2; disulfide 1-6), the pIC50 is 10.05.

Regarding `CC(=O)NCCCC[C@@H]1NC(=O)[C@H](Cc2c[nH]c3c(C)cccc23)NC(=O)[C@H]([C@@H](C)O)NC(=O)[C@H](CC(N)=O)NC(=O)[C@@H](NC(C)=O)C(C)(C)SSC(C)(C)[C@@H](C(=O)N[C@@H](Cc2ccc(OCCN)cc2)C(=O)N[C@@H](Cc2ccc3ccccc3c2)C(=O)NC2(C(=O)N[C@@H](CCCCNC(=O)COCCOCCNC(=O)COCCOCCNC(=O)[C@H]3CCCN3C(=O)[C@H]3CCCN3C(=O)[C@H]3CCCN3C(=O)CC[C@H](NC(=O)CCCCCCCCCCCCCCCCC(=O)O)C(=O)O)C(=O)N[C@@H](CC(N)=O)C(=O)N[C@@H](Cc3cccnc3)C(=O)N(C)CC(N)=O)CCOCC2)NC1=O` [Example 108, MeCO-Pen*-N-T-7MeW-K(Ac)-Pen*-AEF-2Nal-THP-K(PEG2PEG2pppgEC18OH)-N-3Pya-Sar-CONH2], the pIC50 is 9.82.

Regarding `CCCCCCCCCCCCCCCCCC(=O)N[C@@H](CCC(=O)NCCCC[C@H](NC(=O)C1(NC(=O)[C@H](Cc2ccc3ccccc3c2)NC(=O)[C@H](Cc2ccc(OCCN)cc2)NC(=O)[C@H]2NC(=O)[C@H](CCCCNC(C)=O)NC(=O)[C@H](Cc3c[nH]c4c(C)cccc34)NC(=O)[C@H]([C@@H](C)O)NC(=O)[C@H](CC(N)=O)NC(=O)[C@@H](NC(C)=O)C(C)(C)SSC2(C)C)CCOCC1)C(=O)N[C@@H](CC(N)=O)C(=O)N[C@@H](Cc1cccnc1)C(=O)N(C)CC(N)=O)C(=O)O` [Example 31, MeCO-Pen*-N-T-7MeW-K(Ac)-Pen*-AEF-2Nal-THP-K(gEC18)-N-3Pya-Sar-CONH2] (Ac-[Pen]NT[Trp(7-Me)]K(Ac)[Pen][AEF][2Nal][Thp]K([γGlu-Stearoyl])N[3Pal][Sar]-NH2; disulfide 1-6), the pIC50 was 10.28.

As for `CC(=O)NCCCC[C@H](NC(=O)C1(NC(=O)[C@H](Cc2ccc3ccccc3c2)NC(=O)[C@H](Cc2ccc(OCCN)cc2)NC(=O)[C@H]2NC(=O)[C@H](CCCCNC(=O)COCCOCCNC(=O)COCCOCCNC(=O)CC[C@H](NC(=O)CCCCCCCCCCCCCCCCC(=O)O)C(=O)O)NC(=O)[C@H](Cc3c[nH]c4c(C)cccc34)NC(=O)[C@H]([C@@H](C)O)NC(=O)[C@H](CC(N)=O)NC(=O)[C@@H](NC(=O)[C@@H](CCCNC(=N)N)NC(C)=O)C(C)(C)SSC2(C)C)CCOCC1)C(=O)N[C@@H](CC(N)=O)C(=O)N[C@@H](Cc1cccnc1)C(=O)N(C)CC(N)=O` [Example 88, MeCO-r-Pen*-N-T-7MeW-K(PEG2PEG2gEC18OH)-Pen*-AEF-2Nal-THP-K(Ac)-N-3Pya-Sar-CONH2] (Ac-[dR][Pen]NT[Trp(7-Me)]K([AEEA-AEEA-γGlu-C18 diacid])[Pen][AEF][2Nal][Thp]K(Ac)N[3Pal][Sar]-NH2; disulfide 2-7), the pIC50 is 9.70.

On to `CC(=O)NCCCC[C@@H]1NC(=O)[C@H](Cc2c[nH]c3c(C)cccc23)NC(=O)[C@H]([C@@H](C)O)NC(=O)[C@H](CCCCNC(=O)COCCOCCNC(=O)COCCOCCNC(=O)[C@H]2CCCN2C(=O)CC[C@H](NC(=O)CCCCCCCCCCCCCCCCC(=O)O)C(=O)O)NC(=O)[C@@H](NC(=O)[C@@H](CCCNC(=N)N)NC(C)=O)C(C)(C)SSC(C)(C)[C@@H](C(=O)N[C@@H](Cc2ccc(OCCN)cc2)C(=O)N[C@@H](Cc2ccc3ccccc3c2)C(=O)NC2(C(=O)N[C@@H](CCCCNC(C)=O)C(=O)N[C@@H](CC(N)=O)C(=O)N[C@@H](Cc3cccnc3)C(=O)N(C)CC(N)=O)CCOCC2)NC1=O` [Example 96, MeCO-r-Pen*-K(PEG2PEG2pgEC18OH)-T-7MeW-K(Ac)-Pen*-AEF-2Nal-THP-K(Ac)-N-3Pya-Sar-CONH2] (Ac-[dR][Pen]K([AEEA-AEEA-dP-γGlu-C18 diacid])T[Trp(7-Me)]K(Ac)[Pen][AEF][2Nal][Thp]K(Ac)N[3Pal][Sar]-NH2; disulfide 2-7), for which the pIC50 was 9.89.

Still in this assay, the particulars now being: IL23R reporter assay, HEK293 cells with IL-23R and STAT-inducible luciferase reporter, 10 ng/mL IL-23, 5 h; Table 5b 'IL-23 Binding Data'.
Take “MeCO-r-Pen(3)-N15-T-7MeW-K(Ac)-Pen(3)-AEF-2Nal-THP-E-N15-3Pya-Sar-K(PEG2PEG2gEC18OH)-CONH2 [Compound 354]”: the pIC50 was 5.89.
